Laboratory results: US9510598B2, “Nitrogen-containing heterocyclic compounds for plant disease control” (BAYER CROPSCIENCE AG, priority 2012, dated 2016)
Like-named read-outs stand apart in the source and are kept apart here.

Experiments:
Botrytis cinerea = assay: In vivo preventive test on Botrytis cinerea (grey mould); conditions: 500 ppm; gherkin plants sprayed 24 hours before contamination; grading 4-5 days after contamination vs control plants
Description: Gherkin plants (“Vert petit de Paris” variety), sown in starter cups on a 50/50 peat soil-pozzolana substrate and grown at 24° C., are treated at the Z11 cotyledon stage by spraying with the active ingredient prepared as described above. Plants, used as controls, are treated with the mixture of acetone/tween/DMSO/water not containing the active material. After 24 hours, the plants are contaminated by spraying the cotyledons with an aqueous suspension of cryopreserved Botrytis cinerea spores (50 000 spores per ml). The spores are suspended in a nutrient solution composed of 10 g/L of PDB, 50 g/L of D-Fructose, 2 g/L of NH4NO3 and 1 g/L of KH2PO4. The contaminated gherkin plants are incubated at 17° C. and at 80% relative humidity. Grading (% of efficacy) is carried out 4-5 days after the contamination, in comparison with the control plants.

[1] = format: physicochemical; conditions: for Log P: method [a]: HPLC/LC-MS on reversed phase at pH 2.7, 0.1% formic acid in water and acetonitrile
Septoria tritici = assay: In vivo preventive test on Septoria tritici (leaf spot on wheat); conditions: 500 ppm; wheat plants sprayed 24 hours before contamination; grading 21 to 28 days after contamination vs control plants
In short: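 Scipion wheat at 1-leaf stage sprayed with compound, controls receiving acetone/tween/DMSO/water vehicle; 24 h later leaves inoculated with Septoria tritici spores (500 000 spores per ml). Efficacy (%) graded versus control plants 21 to 28 days after contamination.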

[2] = linear gradient 10% to 95% acetonitrile
[3] = method [a]: HPLC/LC-MS on reversed phase at pH 2.7, 0.1% formic acid in water / acetonitrile, linear gradient 10% to 95% acetonitrile
[4] = HPLC on reversed phase columns, method [a]: pH 2.7, 0.1% formic acid in water / acetonitrile, linear gradient 10% to 95% acetonitrile
[5] = method [a]: HPLC/LC-MS on reversed phase at pH 2.7, 0.1% formic acid in water / acetonitrile, gradient 10% to 95% acetonitrile

C#Cc1cnc2ccc(C3=NOC(C(=O)NCCCOCC)(C(F)F)C3)cc2c1 (stereo not shown) [Compound No. 615]
% of efficacy (protection) (Botrytis cinerea): 95% | chromatographic logP ([1]; pH 2.7): 2.73 | % of efficacy (protection) (Septoria tritici): 79%

CCOCCCNC(=O)C1(C)CC(c2cc3cc(Br)cnc3c(F)c2F)=NO1 (stereo not shown) [compound 14]
% of efficacy (protection) (Botrytis cinerea): 100% | Log P [1, 2]: 2.98^[a]

CCC(C)NC(=O)C1(C)CC(c2cc3cc(Br)cnc3c(F)c2F)=NO1 (stereo not shown) [compound 22]
% of efficacy (protection) (Botrytis cinerea): 93% | Log P [1, 2]: 3.31^[a] | % of efficacy (protection) (Septoria tritici): 83%

CCOCCCNC(=O)C1(C(C)C)CC(c2ccc3ncc(Br)cc3c2)=NO1 (stereo not shown) [compound 64]
% of efficacy (protection) (Botrytis cinerea): 77% | log P [1, 3]: 3.46^[a] | % of efficacy (protection) (Septoria tritici): 70%

CCC1(C(=O)NC2CC2)CC(c2ccc3ncc(Br)cc3c2)=NO1 (stereo not shown) [compound 69]
% of efficacy (protection) (Botrytis cinerea): 99% | log P [1, 3]: 2.75^[a] | % of efficacy (protection) (Septoria tritici): 97%

CCOc1cnc2ccc(C3=NOC(C)(C(=O)NC(C)C)C3)cc2c1 (stereo not shown) [compound 78]
% of efficacy (protection) (Botrytis cinerea): 74% | log P [1, 3]: 2.43^[a] | % of efficacy (protection) (Septoria tritici): 97%

CC1(C(=O)NCC2CCOC2)CC(c2ccc3ncc(Br)cc3c2)=NO1 (stereo not shown) [compound 127]
% of efficacy (protection) (Botrytis cinerea): 80% | log P [1, 3]: 2.2^[a]

C#Cc1cnc2ccc(C3=NOC(C)(C(=O)NCC4(C)CCCO4)C3)cc2c1 (stereo not shown) [compound 128]
% of efficacy (protection) (Botrytis cinerea): 98% | log P [1, 3]: 2.42^[a] | % of efficacy (protection) (Septoria tritici): 83%

CC1(C(=O)NCC2CCCO2)CC(c2ccc3ncc(Br)cc3c2)=NO1 (stereo not shown) [compound 130]
% of efficacy (protection) (Botrytis cinerea): 89% | log P [1, 3]: 2.45^[a]

CC1(CNC(=O)C2(C)CC(c3ccc4ncc(Br)cc4c3)=NO2)CCCO1 (stereo not shown) [compound 131]
% of efficacy (protection) (Botrytis cinerea): 92% | log P [1, 3]: 2.73^[a] | % of efficacy (protection) (Septoria tritici): 83%

CCn1cc(CNC(=O)C2(C)CC(c3ccc4ncc(SC)cc4c3)=NO2)c(C)n1 (stereo not shown) [compound 147]
% of efficacy (protection) (Botrytis cinerea): 88% | log P [1, 3]: 2.09^[a]

C#Cc1cnc2ccc(C3=NOC(C)(C(=O)NCc4cnc(C)cn4)C3)cc2c1 (stereo not shown) [compound 167]
% of efficacy (protection) (Botrytis cinerea): 100% | log P [1, 3]: 1.98^[a] | % of efficacy (protection) (Septoria tritici): 100%

C#Cc1cnc2ccc(C3=NOC(C)(C(=O)NCc4ccccc4Cl)C3)cc2c1 (stereo not shown) [compound 168]
% of efficacy (protection) (Botrytis cinerea): 99% | log P [1, 3]: 3.23^[a] | % of efficacy (protection) (Septoria tritici): 71%

C#Cc1cnc2ccc(C3=NOC(C)(C(=O)NCc4cnn(-c5ccccc5)c4)C3)cc2c1 (stereo not shown) [compound 186]
% of efficacy (protection) (Botrytis cinerea): 92% | log P [1, 3]: 2.78^[a] | % of efficacy (protection) (Septoria tritici): 71%

C#Cc1cnc2ccc(C3=NOC(C)(C(=O)NCc4cccc(OC(F)(F)F)c4)C3)cc2c1 (stereo not shown) [compound 190]
% of efficacy (protection) (Botrytis cinerea): 89% | log P [1, 3]: 3.48^[a] | % of efficacy (protection) (Septoria tritici): 71%

C#Cc1cnc2ccc(C3=NOC(C)(C(=O)NCc4cc(Cl)cc(Cl)c4)C3)cc2c1 (stereo not shown) [compound 193]
% of efficacy (protection) (Botrytis cinerea): 74% | log P [1, 3]: 3.71^[a]

CC1(C(=O)NCc2cnn(-c3ccccc3)c2)CC(c2ccc3ncc(Br)cc3c2)=NO1 (stereo not shown) [compound 202]
% of efficacy (protection) (Botrytis cinerea): 87% | log P [1, 3]: 3.11^[a]

C#Cc1cnc2ccc(C3=NOC(C)(C(=O)NC4COC4)C3)cc2c1 (stereo not shown) [compound 238]
% of efficacy (protection) (Botrytis cinerea): 82% | log P [1, 4]: 1.75^[a] | % of efficacy (protection) (Septoria tritici): 93%

CC(C)NC(=O)C1(C2CC2)CC(c2ccc3ncc(Br)cc3c2)=NO1 (stereo not shown) [compound 267]
% of efficacy (protection) (Botrytis cinerea): 85% | log P [1, 4]: 3.25[a] | % of efficacy (protection) (Septoria tritici): 93%

CCn1cc(CNC(=O)C2(C3CC3)CC(c3ccc4ncc(Br)cc4c3)=NO2)c(C)n1 (stereo not shown) [compound 268]
% of efficacy (protection) (Botrytis cinerea): 93% | log P [1, 4]: 2.73[a]

CCOc1cnc2ccc(C3=NOC(C)(C(=O)NCc4cn(CC)nc4C)C3)cc2c1 (stereo not shown) [compound 417]
log P [1, 5]: 2.09[a] | % of efficacy (protection) (Septoria tritici): 100%

CCCOc1cnc2ccc(C3=NOC(C)(C(=O)NCc4cn(CC)nc4C)C3)cc2c1 (stereo not shown) [compound 418]
% of efficacy (protection) (Botrytis cinerea): 79% | log P [1, 5]: 2.46[a] | % of efficacy (protection) (Septoria tritici): 83%

C#Cc1cnc2ccc(C3=NOC(OC)(C(=O)N(OC)C(C)CC)C3)cc2c1 (stereo not shown) [compound 466]
log P [1, 5]: 3.31[a] | % of efficacy (protection) (Septoria tritici): 97%

C#Cc1cnc2ccc(C3=NOC(OC)(C(=O)N(C(C)C)C4CC4)C3)cc2c1 (stereo not shown) [compound 467]
log P [1, 5]: 3.35[a] | % of efficacy (protection) (Septoria tritici): 97%

C#Cc1cnc2ccc(C3=NOC(OC)(C(=O)N(OC)C(C)C)C3)cc2c1 (stereo not shown) [compound 468]
log P [1, 5]: 2.96[a] | % of efficacy (protection) (Septoria tritici): 100%

CCn1cc(CNC(=O)C2(C)CC(c3ccc4nc(OC)c(I)cc4c3)=NO2)c(C)n1 (stereo not shown) [compound 472]
log P [1, 5]: 3.11[a] | % of efficacy (protection) (Septoria tritici): 75%

C#Cc1cnc2ccc(C3=NOC(OC)(C(=O)NCC(O)CO)C3)cc2c1 (stereo not shown) [compound 473]
log P [1, 5]: 1.44[a] | % of efficacy (protection) (Septoria tritici): 75%

C#Cc1cnc2ccc(C3=NOC(C)(C(=S)NCc4cnc(C)cn4)C3)cc2c1 (stereo not shown) [compound 481]
% of efficacy (protection) (Botrytis cinerea): 97% | log P [1, 5]: 2.84[a] | % of efficacy (protection) (Septoria tritici): 86%

CCn1cc(NC(=O)C2(C)CC(c3ccc4ncc(Br)cc4c3)=NO2)c(C)n1 (stereo not shown) [compound 489]
log P [1, 5]: 2.50[a] | % of efficacy (protection) (Septoria tritici): 93%

C#Cc1cc2cc(C3=NOC(C)(C(=O)NCc4cn(CC)nc4C)C3)ccc2nc1OC (stereo not shown) [compound 490]
log P [1, 5]: 2.55[a] | % of efficacy (protection) (Septoria tritici): 88%

C#Cc1cc2cc(C3=NOC(C)(C(=O)NCc4cn(CC)nc4C)C3)ccc2nc1C#N (stereo not shown) [compound 491]
log P [1, 5]: 2.39[a] | % of efficacy (protection) (Septoria tritici): 75%

CC1(C(=O)NCC(F)(F)F)CC(c2ccc3ncc(Br)cc3c2)=NO1 (stereo not shown) [compound 493]
% of efficacy (protection) (Botrytis cinerea): 100% | log P [1, 5]: 2.84[a] | % of efficacy (protection) (Septoria tritici): 97%

CCC1(C(=O)NC2CCC2)CC(c2ccc3ncc(Br)cc3c2)=NO1 (stereo not shown) [compound 498]
% of efficacy (protection) (Botrytis cinerea): 92% | log P [1, 5]: 3.31[a] | % of efficacy (protection) (Septoria tritici): 71%

C#Cc1cnc2ccc(C3=NOC(C)(C(=O)NC4CCOCC4)C3)cc2c1 (stereo not shown) [compound 502]
% of efficacy (protection) (Botrytis cinerea): 98% | log P [1, 5]: 2.01[a] | % of efficacy (protection) (Septoria tritici): 100%

C#Cc1cnc2ccc(C3=NOC(CC)(C(=S)NCc4cn(CC)nc4C)C3)cc2c1 (stereo not shown) [compound 507]
log P [1, 5]: 3.31[a] | % of efficacy (protection) (Septoria tritici): 97%

C#Cc1cnc2ccc(C3=NOC(OC)(C(=O)NC(C)(C)c4ccon4)C3)cc2c1 (stereo not shown) [compound 509]
log P [1, 5]: 2.52[a] | % of efficacy (protection) (Septoria tritici): 97%

C=C(C)C1(C(=O)NC(C)C)CC(c2ccc3ncc(Br)cc3c2)=NO1 (stereo not shown) [compound 517]
% of efficacy (protection) (Botrytis cinerea): 80% | log P [1, 4]: 3.41[a]

Cc1cnc(CNC(=O)C2(C)CC(c3cc(Cl)c4ncc(Br)cc4c3)=NO2)cn1 (stereo not shown) [compound 556]
log P [1, 4]: 2.64[a] | % of efficacy (protection) (Septoria tritici): 97%

CCOCCCNC(=O)C1(C(C)O)CC(c2ccc3ncc(Br)cc3c2)=NO1 (stereo not shown) [compound 560]
log P [1, 4]: 2.27[a] | % of efficacy (protection) (Septoria tritici): 97%

CC1(C)OCC(CNC(=O)C2(C(F)F)CC(c3ccc4ncc(I)cc4c3)=NO2)O1 (stereo not shown) [compound 618]
log P [1, 4]: 3.06[a] | % of efficacy (protection) (Septoria tritici): 93%

C=CC1(C(=O)NCC2COC(C)(C)O2)CC(c2ccc3ncc(Br)cc3c2)=NO1 (stereo not shown) [compound 732]
log P ([1]; HPLC on reversed phase columns, method [a]: pH 2.7, 0.1% formic acid in water and acetonitrile, linear gradient 10% to 95% acetonitrile): 2.98[a] | % of efficacy (protection) (Septoria tritici): 100%
